# Patent publication US7390630B1, “Method of identifying a compound that selectively inhibits cytokine-stimulated T cell induced production of TNF-alpha by monocytes” (Mathilda and Terence Kennedy Institute of Rheumatology Trust, priority 1999, dated 2008)
# Several values for one entry are separate records, joined by “and”; a condition that tells them apart may be missing. Equal entries are not always repeated.
# Columns and labels:
# Type in all cases: cell-based, Human
# [1] = test system: monocyte TNFα production induced by RA CD3+ enriched cells; experiment: Monocyte TNFα production induced by fixed RA synovial CD3+ enriched T cells; conditions: for TNFα: LY294002 50 μM 30 min, Wortmannin 500 nM 30 min, AKTA 5 mM 30 min, Rapamycin 10 μM 60 min, untreated control 686 ± 59, mean ±SD; for TNFα / Percent change: RA T cells:monocytes 5:1, 18 h; for Percent change: change of TNFα versus untreated control, LY294002 50 μM, Wortmannin 500 nM, Rapamycin 10 μM
# Description: (§1) Rheumatoid arthritis (RA) mononuclear cells were obtained from synovial tissue specimens provided by the Rheumatology Clinic, Charing Cross Hospital, London, UK. Tissue was teased into small pieces and digested in medium containing 0.15 mg/ml DNase type 1 (Sigma, UK) and 5 mg/ml collagenase (Roche, UK) for 1 to 2 hours at 37° C. After passing cells through nylon mesh to exclude cell debris, cells were washed and resuspended in RPMI medium (Biohittaker, Verviers, Belgium) (containing 10% heat-inactivated FCS) at a density of 1×10^6 cells/ml and used immediately.
# CD3+ enriched cells were isolated from RA synovial mononuclear cells by direct, positive selection using Dynabeads (Dynal UK Ltd, Wirral, UK) coated with anti-CD3 monoclonal antibodies (anti-CD3 mAbs). Briefly, mononuclear cells (1×10^7) were cultured with 100 μl anti-CD3 mAb-coated Dynabeads for 20 minutes at 4° C. under constant rotation. Cells attached to beads were isolated using a magnetic particle concentrator (Dynal, Merseyside, UK) and cultured for 6 hours at 37° C. Detached cells were removed from magnetic beads and washed three times using the magnetic particle concentrator.
# This technique allowed for isolation of CD3+ cells, yielding cells of high purity (>99%) and viability (>95%). Following isolation, CD3+ enriched cells were washed three times in RPMI medium containing 1% heat-inactivated FCS, fixed for 1 minute at 0° C. in phosphate-buffered saline (PBS) containing 0.05% glutaraldehyde, and neutralized with an equivalent volume of T lymphocyte neutralizing buffer containing 0.2 M glycine. Following a further three washes, the fixed CD3+ cells were resuspended (at a concentration of 2×10^6 cell/ml) in RPMI medium containing 5% heat-inactivated FCS, and stored for up to 7 days at 4° C. until used. Prior to use, CD3+ enriched cells were washed twice in complete medium.
# Monocytes were cultured at 1×10^6 cells/ml in RPMI 1640 medium (containing 5% heat-inactivated FCS) in round-bottomed 96-well culture plates (Nunc Life Technologies Ltd., Paisley, Scotland) in the presence of fixed T cells at varying T-cell/monocyte ratios ranging from 1:1 to 7:1 (as indicated). In some experiments, a semi-permeable membrane insert (Nunc Life Technologies Ltd., Paisley, Scotland) was fitted into the culture wells to physically separate the monocytes from the T cells. In all experiments, efficient fixation of T cells was tested by incubating an aliquot of T-cells (7×10^6 cells/ml) in the absence of monocytes and assaying the amount of TNFα released by the cells under these conditions. Lipopolysaccharide (LPS, 10 ng/ml) was included in experiments as a positive control for monocyte cytokine production.
# (§2) Reagents for the TNFα ELISA were provided by Dr. W. Buurman (Rijks Universiteit Limburg, Maastricht, Netherlands). The ELISA was performed using immobilized anti-TNFα mAb 61E71. and developed using a rabbit anti-TNFα polyclonal antibody. An alternative ELISA for TNFα is commercially available from Pharmingen. The rabbit polyclonal antibody was detected using a peroxidase-conjugated goat anti-rabbit IgG (H+L) (Jackson Immunoresearch Laboratories Inc., Westgrove, PE, USA) followed by an appropriate substrate. The sensitivity range of the assay was 1.6 to 5000 pg/ml.
# For monocyte/T-cell co-culture experiments, monocytes were cultured with relevant enzyme inhibitors at 37° C. for varying periods of time (see legend to Table 2) prior to co-culture with fixed T-cells for 18 hours. Supernatants were harvested and assayed for presence of TNFα by ELISA. Cell suspensions were taken for determination of cell viability. […]
# The effect of wortmannin and LY294002 was also studied on monocyte TNFα production induced by RA CD3+ ve enriched cells (see Table 2). Normal monocytes isolated by elutriation were treated with selective enzyme inhibitors for the designated times prior to co-culture with fixed rheumatoid CD3+ T cells at a ratio 5:1 (T cells to monocytes) for 18 hours. […]
# [2] = test system: monocyte TNFα production induced by anti-CD3 antibody stimulated T-cells (Ttcr cells); experiment: Ttcr cell-induced TNFα production by monocytes (co-culture, ELISA); conditions: for IC50: Homo sapiens, Monocyte, T cells:monocytes 5:1, 18 h co-culture, read-out: IC50, inhibition of monocyte TNFα production induced by Ttcr cells
# Description: Human peripheral blood T cells and monocytes were isolated from single donor plateletpheresis residues (purchased from the North London Blood Transfusion service, Colindale, GB). Mononuclear cells were isolated by Ficoll/Hypaque centrifugation (specific density 1.077 g/ml, Nycomed Pharma AS, Oslo, Norway), prior to cell separation in a Beckman JE6 elutriator. Elutriation was performed in culture medium containing 1% heat-inactivated foetal calf serum (FCS) using methods known in the art (see Sebbag et al., 1997, Parry et al., 1997). T cell and monocyte purity were assessed by flow cytometry (see Sebbag et al., 1997).
# Ttcr cells: Ttcr cells were prepared from elutriation enriched T cells by resuspending the cells at a density of 10^6 cells/ml in RPMI 1640 (containing 10% heat inactivated AB+ human serum (Biowhittaker, UK). Following resuspension, the cells were incubated (at 37° C. in a 5% CO2/95% humidified incubator) in 6-well culture plates with immobilised anti-CD3 monoclonal antibodies for 24 hours (OKT3, ATCC, Maryland, USA), the antibodies having previously been coated on to the 6-well culture plates at 10 μg/ml (overnight at 4° C.).
# Following completion of the culture period, the Tck and Ttcr cells were harvested and washed three times in RPMI medium containing 1% heat-inactivated fetal calf serum (FCS), prior to fixation for 1 minute at 0° C. in PBS containing 0.05% glutaraldehyde, and neutralized with an equivalent volume of T lymphocyte neutralizing buffer containing 0.2 M glycine. […]
# (§3) Reagents for the TNFα ELISA were provided by Dr. W. Buurman (Rijks Universiteit Limburg, Maastricht, Netherlands). […] The rabbit polyclonal antibody was detected using a peroxidase-conjugated goat anti-rabbit IgG (H+L) (Jackson Immunoresearch Laboratories Inc., Westgrove, PE, USA) followed by an appropriate substrate. […]
# (§4) Monocytes were treated with M-CSF for 2 days as described above, infected with adenovirus containing either an insert encoding IκBα (AdvIκBα) or no insert (Adv0). The effect of IκBα over-expression on T cell-induced monocyte (ratio 5:1) TNFα production was then determined.
# [3] = test system: monocyte TNFα production induced by cytokine stimulated T cells (Tck cells); experiment: Tck cell-induced TNFα production by monocytes (co-culture, ELISA); conditions: T cells stimulated with IL-2, IL-6 and TNFα; results not shown
# Description: Human peripheral blood T cells and monocytes were isolated from single donor plateletpheresis residues (purchased from the North London Blood Transfusion service, Colindale, GB). Mononuclear cells were isolated by Ficoll/Hypaque centrifugation (specific density 1.077 g/ml, Nycomed Pharma AS, Oslo, Norway), prior to cell separation in a Beckman JE6 elutriator. Elutriation was performed in culture medium containing 1% heat-inactivated foetal calf serum (FCS) using methods known in the art (see Sebbag et al., 1997, Parry et al., 1997). T cell and monocyte purity were assessed by flow cytometry (see Sebbag et al., 1997). […]
# as §3, §4
# [4] = test system: TNFα production in osteoarthritis (OA) synovial cultures; experiment: TNFα production in osteoarthritis (OA) synovial cultures; conditions: 48 h
# Description: as §1, with “Osteoarthritis (OA)” for “Rheumatoid arthritis (RA)”, “As in the case of RA cells (above), OA synovial tissue” for “Tissue”, “(BioWhittaker,” for “(Biohittaker,”
# as §2
# The effect of the PI3 kinase inhibitor, LY294002, was studied on TNFα production in osteoarthritis (OA) synovial cultures. OA synovial joint cultures were cultured for 48 hours in the presence of increasing concentrations of the PI3 kinase inhibitor, LY294002. Culture supernatants were then harvested and assayed for TNFα (pg/ml) by ELISA.
smiles,measurement,setting,value
"COC[C@H]1OC(=O)c2coc3c2[C@@]1(C)C1=C(C3=O)[C@@H]2CCC(=O)[C@@]2(C)C[C@H]1OC(C)=O [Wortmannin, wortmannin]",TNFα,[1],7333 ± 304 pg/mL
same,TNFα,[1]; listed as wortmannin,7333 ± 304 pg/mL
same,Percent change,[1]; AKTA 5 mM,+968%
same,IC50,[2],0.05 nM
"CO[C@H]1C[C@@H]2CC[C@@H](C)[C@@](O)(O2)C(=O)C(=O)N2CCCC[C@H]2C(=O)O[C@H]([C@H](C)C[C@@H]2CC[C@@H](O)[C@H](OC)C2)CC(=O)[C@H](C)/C=C(\C)[C@@H](O)[C@@H](OC)C(=O)[C@H](C)C[C@H](C)/C=C/C=C/C=C/1C [Rapamycin, rapamycin]",effect on TNFα production in monocytes stimulated by RA T-cells,"[1]; AKTA 5 mM, rapamycin 10 μM, T cells:monocytes 5:1",no significant effect
same,TNFα,[1],399 ± 21 pg/mL
same,Percent change,[1]; AKTA 5 mM,−42%
same,effect on monocyte TNFα production induced by cytokine stimulated T cells,[3],no effect
same,effect on monocyte TNFα production induced by anti-CD3 antibody stimulated T cells,[2]; results not shown,no effect
O=c1cc(N2CCOCC2)oc2c(-c3ccccc3)cccc12 [LY294002],TNFα,[1],883 ± 304 pg/mL and 883 ± 38 pg/mL
same,Percent change,[1]; AKTA 5 mM,+29%
same,IC50,[2],70 nM
same,TNFα production,"[4]; culture OA 1833, LY 294002 0.005 μM, 0.0 μM: 224 ± 15",236 ± 11 pg/mL
same,TNFα production,"[4]; culture OA 1833, LY 294002 0.05 μM, 0.0 μM: 224 ± 15",235 ± 22 pg/mL
same,TNFα production,"[4]; culture OA 1833, LY 294002 0.5 μM, 0.0 μM: 224 ± 15",233 ± 28 pg/mL
same,TNFα production,"[4]; culture OA 1833, LY 294002 5.0 μM, 0.0 μM: 224 ± 15",202 ± 15 pg/mL
same,TNFα production,"[4]; culture OA 1833, LY 294002 50.0 μM, 0.0 μM: 224 ± 15",204 ± 5 pg/mL
same,TNFα production,"[4]; culture OA 1840, LY 294002 0.005 μM, 0.0 μM: 635 ± 19",612 ± 13 pg/mL
same,TNFα production,"[4]; culture OA 1840, LY 294002 0.05 μM, 0.0 μM: 635 ± 19",642 ± 32 pg/mL
same,TNFα production,"[4]; culture OA 1840, LY 294002 0.5 μM, 0.0 μM: 635 ± 19",597 ± 38 pg/mL
same,TNFα production,"[4]; culture OA 1840, LY 294002 5.0 μM, 0.0 μM: 635 ± 19",651 ± 50 pg/mL
same,TNFα production,"[4]; culture OA 1840, LY 294002 50.0 μM, 0.0 μM: 635 ± 19",600 ± 31 pg/mL
same,TNFα production,"[4]; culture OA 1851, LY 294002 0.005 μM, 0.0 μM: 227 ± 19",236 ± 13 pg/mL
same,TNFα production,"[4]; culture OA 1851, LY 294002 0.05 μM, 0.0 μM: 227 ± 19",250 ± 12 pg/mL
same,TNFα production,"[4]; culture OA 1851, LY 294002 0.5 μM, 0.0 μM: 227 ± 19",237 ± 63 pg/mL
same,TNFα production,"[4]; culture OA 1851, LY 294002 5.0 μM, 0.0 μM: 227 ± 19",233 ± 15 pg/mL
same,TNFα production,"[4]; culture OA 1851, LY 294002 50.0 μM, 0.0 μM: 227 ± 19",246 ± 31 pg/mL
same,TNFα production,"[4]; culture OA 1861, LY 294002 0.005 μM, 0.0 μM: 155 ± 42",141 ± 33 pg/mL
same,TNFα production,"[4]; culture OA 1861, LY 294002 0.05 μM, 0.0 μM: 155 ± 42",127 ± 5 pg/mL
same,TNFα production,"[4]; culture OA 1861, LY 294002 0.5 μM, 0.0 μM: 155 ± 42",145 ± 29 pg/mL
same,TNFα production,"[4]; culture OA 1861, LY 294002 5.0 μM, 0.0 μM: 155 ± 42",131 ± 44 pg/mL
same,TNFα production,"[4]; culture OA 1861, LY 294002 50.0 μM, 0.0 μM: 155 ± 42",215 ± 9 pg/mL
same,TNFα production,"[4]; culture OA 1862, LY 294002 0.005 μM, 0.0 μM: 141 ± 35",166 ± 31 pg/mL
same,TNFα production,"[4]; culture OA 1862, LY 294002 0.05 μM, 0.0 μM: 141 ± 35",171 ± 55 pg/mL
same,TNFα production,"[4]; culture OA 1862, LY 294002 0.5 μM, 0.0 μM: 141 ± 35",185 ± 7 pg/mL
same,TNFα production,"[4]; culture OA 1862, LY 294002 5.0 μM, 0.0 μM: 141 ± 35",226 ± 100 pg/mL
same,TNFα production,"[4]; culture OA 1862, LY 294002 50.0 μM, 0.0 μM: 141 ± 35",205 ± 19 pg/mL
same,effect on TNFα production in cultures of OA synovial tissue,"[4]; varying concentrations, five different samples",no significant effect
